Source: article PMC8643917, “982. Effect of Hepatic Impairment on the Safety and Pharmacokinetics of Rezafungin” (Open Forum Infectious Diseases, 2021)
Like-named read-outs stand apart in the source and are kept apart here. *1 amine or outer side, *2 acyl side, *3 side chain or, on linkers, in order; H or OH if unused. Where a SMILES comes first, the peptide text is derived from it. Bridges are numbered along the chain shown (N, C = ends). [ ]: non-standard residue; d: D form. The star is where a group is joined. Orn(4R-OH,5R-OCH2CH2NMe3+) = C[N+](C)(C)CCO[C@@H](N[*:3])[C@H](O)C[C@H](N[*:1])C(=O)[*:2]; pTerphenylCO(4''-OnC5H11) = CCCCCOc1ccc(-c2ccc(-c3ccc(C(=O)*)cc3)cc2)cc1; hTyr(3S-OH,4S-OH) = N[C@H](C(=O)O)[C@H](O)[C@@H](O)c1ccc(O)cc1; Pro(3S-OH,4S-Me) = C[C@H]1CN[C@H](C(=O)O)[C@H]1O; Hyp = O=C(O)[C@@H]1C[C@@H](O)CN1

Legend:
[1] = Plasma pharmacokinetics of rezafungin after a single 400-mg IV 1-hour infusion, open-label single-dose study, non-compartmental analysis; type: in vivo, human; details: for half-life: n = 8, plasma sampling through 336 hours postdose, non-compartmental analysis
Excerpt: (§1) Abstract Background Rezafungin (RZF) is a novel echinocandin antifungal being developed for treatment of candidemia and invasive candidiasis, and for prevention of invasive fungal diseases among immunosuppressed patients. In the Phase 2 and Phase 3 treatment trials of rezafungin compared with caspofungin (STRIVE [NCT02734862] and ReSTORE [NCT03667690], respectively), patients with severe hepatic impairment (HI) were not included due to lack of caspofungin data in this population. Rezafungin was previously evaluated in patients with moderate hepatic impairment. Here we report an open-label, single-dose study on rezafungin in patients with HI (Child-Pugh class C). Methods To investigate the safety, tolerability, and pharmacokinetics (PK) of RZF in subjects with HI and healthy subjects (HS), 8 subjects with HI and 8 HS matched for age, sex, and body mass index (BMI) were enrolled and received a single 400-mg intravenous 1-hour infusion of RZF. Plasma PK sampling was performed at various time points through 336 hours postdose. RZF PK parameters were derived using non-compartmental analysis. Safety was assessed throughout the study. Results The majority of the HI subjects were White (87.5%) and male (75%) while equal distribution between White and Black or African American was observed among HS (50%) and 75% were male. The mean age of HI subjects was 58 years (range, 41–68 years) and 56.6 years (range, 50–61 years) for the HS. Mean BMI was 29.7 kg/m^2 (range, 24.5–34.3 kg/m^2) for HI subjects and 29.7 kg/m^2 (range, 25.4–34.2 kg/m^2) for the HS. […] Three HI subjects had one adverse event (AE) each (bronchitis, worsening hepatic encephalopathy, hyponatremia), all moderate in severity; one HS had 1 AE of infusion site infiltration mild in severity. […] Table 1. Plasma Rezafungin PK Parameter Estimates in Subjects with Severe Hepatic Impairment or Normal Hepatic Function After a Single 400 mg IV Infusion of Rezafungin Figure 1. […] These findings support no RZF dose adjustment in subjects with severe hepatic impairment. Disclosures Voon Ong, PhD, Cidara Therapeutics (Employee, Shareholder) Taylor Sandison, MD, MPH, Cidara Therapeutics (Employee, Shareholder) Rebeca M. Melara, M.S., Altasciences (contract research organization) (Employee) Thomas C. Marbury, MD, Orlando Clinical Research Center (Employee, Other Financial or Material Support, Equity owner of Orlando Clinical Research Center) Alena Jandourek, MD, Cidara therapeutics (Consultant) Shawn Flanagan, PhD, Cidara Therapeutics (Employee, Shareholder)

[2] = Safety and tolerability of a single 400-mg IV infusion of rezafungin in subjects with severe hepatic impairment and matched healthy subjects; type: in vivo, human
Excerpt: as §1

[3] = HI (Child-Pugh class C, n = 8) versus matched HS (n = 8), plasma, reduction

CCCCCOc1ccc(-c2ccc(-c3ccc(C(=O)N[C@H]4C[C@@H](O)[C@@H](OCC[N+](C)(C)C)NC(=O)[C@@H]5[C@@H](O)[C@@H](C)CN5C(=O)[C@H]([C@@H](C)O)NC(=O)[C@H]([C@H](O)[C@@H](O)c5ccc(O)cc5)NC(=O)[C@@H]5C[C@@H](O)CN5C(=O)[C@H]([C@@H](C)O)NC4=O)cc3)cc2)cc1 [RZF, Rezafungin] ({pTerphenylCO(4''-OnC5H11)}-[Orn(4R-OH,5R-OCH2CH2NMe3+)]T[Hyp][hTyr(3S-OH,4S-OH)]T[Pro(3S-OH,4S-Me)]; lactam 1-C)
RZF exposure (AUC) in subjects with HI, lower than that in HS [1, 3]: ~ 30%
RZF exposure (Cmax) in subjects with HI, lower than that in HS [1, 3]: ~ 30%
half-life ([1]; both sexes, human, subjects with severe hepatic impairment (HI, Child-Pugh class C), read-out: half-life (converted)): 121 h
half-life ([1]; healthy subjects (HS) matched for age, sex and BMI): 124 h
adverse events considered related to RZF ([2]; HI and HS subjects, all AEs resolved or resolving by the end of the study): No AEs were considered related to RZF
tolerability ([2]; HI subjects (Child-Pugh class C)): well tolerated
number of subjects with an adverse event (AE) ([2]; HI subjects (n = 8), one AE each (bronchitis, worsening hepatic encephalopathy, hyponatremia), all moderate in severity): Three
number of subjects with an adverse event (AE) ([2]; healthy subjects (n = 8), 1 AE of infusion site infiltration, mild in severity): one
